# Marks after values point to notes of the source that are not given here.
# Columns and labels:
# [1] = test system: cerebral ischemia/reperfusion injury model rats; test: Neural function score in cerebral ischemia/reperfusion injury model (Example 3); type: in vivo, Sprague-Dawley rats; conditions: for neural function score (median): n=15, scale 0 normal to 5
# Description: Male Sprague-Dawley rats with the age of 12 weeks and weight of 250^˜280 g were used in the experiment after acclimating for a week.
# A middle cerebral artery occlusion model was first established in compliance with the method of Longa E Z et al. (Longa E Z, et al. Reversible middle cerebral artery occlusion without craniectomy in rats. Stroke 20:84-91, 1989). More specifically, 0.36 g/kg of 10% chloral hydrate was administered intraperitoneally to rats which had been fasted for 12 hours (although given free access to water) to anesthetize the rats. Next, a midline incision was made in the neck to expose the right common carotid artery. Then, the internal carotid artery and external carotid artery were separated, the posterior carotid artery, which is a branch of the external carotid artery, and the thyroidea arteria were coagulated and severed, the external carotid artery was ligated at the branch of the lingual artery and maxillary artery, a small puncture was formed in the external carotid artery, 4-0 Nylon suture was passed through the common carotid artery from the puncture, and gradually inserted into the internal carotid artery until there was resistance. The length of the Nylon suture was about 18^˜20 mm from the branch of the common carotid artery. As a result of occluding the middle cerebral artery with Nylon suture, an ischemic state was applied for 2 hours to create a middle cerebral artery occlusion model.
# A cerebral ischemia/reperfusion injury model was established by removing the Nylon suture from the middle cerebral artery of the occlusion model and following reperfusion of blood.
# The first solution was a mixed solution made of sodium chlorite with the concentration of 7.47% and sodium chloride with the concentration of 1.59% with deionized water; the second solution was made of citric acid with the concentration of 16.7% with deionized water. Same volume of solutions were taken out from different vessels with different volumes and mixed up. Allow the solution to mix for 3-5 minutes and dilute it five times with normal saline, and then filter it with 0.22 μm filter membrane of double-deck. The solution was immediately put into injector. The solution was prepared once being used.
# Treatment group (120 rats): A cerebral ischemia/reperfusion injury model was established for the rats already. To administer chlorine dioxide solution everytime that prepared from procedure (3) through carotid artery after the second day the model has established, once a day for total ten days.
# Neural function scores were evaluated once a day after the ischemia/reperfusion injury model established in the 15 rats per group. The scores of neural function disorders were evaluated using the following criteria in compliance with the method of Longa E Z (Longa E Z, et al. Reversible middle cerebral artery occlusion without craniectomy in rats. Stroke 20:84-91, 1989). The results were shown as median.
# 1: Contralateral limb bending on infarction focus
# 2: Contralateral limb on infarction focus becomes asthenic state when tail is pulled backward
# 3: Turning toward opposite side of infarction focus when tail is pulled
# 4: Spontaneous turning towards opposite side of infarction focus
# 5: Loss of spontaneous movement
# [2] = test system: cartilage of hip joint; test: Hip arthritis patients: thickness of cartilage of hip joint by ultrasonic scanning; type: in vivo, human; conditions: listed as activating agent of stem cells comprising a chlorine dioxide; for Medical cartilage thickness mean(±SD): before administration 0.51 (±0.07); for Lateral cartilage thickness mean(±SD): before administration 0.61 (±0.09)
# Description: To smear the solution over the skin of hip arthritis with swab immediately, once a day for consecutive 20 days. Then stop the administration for three months, and then began continuous treatment for 20 days. Clean and disinfect the regions before treatment, conduct local anesthetic 30 minutes before the operation.
# The subjects who joined in the treatment group as volunteers consisted of 11 patients with hip arthritis (5 male, aged from 40 to 70 years old and 6 female, aged from 40 to 65 years old.). Case histories were recorded at the third and the sixth month by collecting personal and data of human body (height, body weight, BMI, blood pressure and heart rate.) Then evaluate the following parameters:
# Thickness of cartilage of hip joint: measured by ultrasonic scanning at the core, the center and the lateral.
# [3] = test system: skin and eye mucous membrane; conditions: content of chlorine dioxide 9.7˜11.4 mg/L; 48 h; cited from earlier work
# [4] = test system: Helicobacter pylori; test: hp-positive gastric ulcer patients: HP negative conversing, rapid urease test; type: in vivo, human; conditions: 30 patients per group
# Description: The subjects consisted of 90 gastric ulcer patients (50 male and 40 female) of hp-positive aged from 33 to 75 years old (average age: 41 years old). The subjects were randomly assigned to treatment group and control group with 30 patients in treatment group and 30 in control group 1 and 30 in control group 2 respectively.
# Allow the solution to mix for 3-5 minutes. The capsule that containing activating agent of stem cells was made by injecting the mixed solution into the soft capsule of number 0.
# The capsule that containing activating agent of stem cells was administered to the patients in treatment group three times a day and a pill each time; 30 minutes before meals, patients in control group 1 took orally 15 mg colloidal bismuth and 100 mg pectin tinidazole for three times a day. And 20 mg Omeprazole two times a day; patients in control group 2 took orally […] amoxicillin and 500 mg clindamycin three times a day and 20 mg esomeprazole twice a day before meals. Both groups were administered for a consecutive week. To observe the improvement of the clinical symptoms of the three cases two weeks after administration, such as stomachache, nausea and sour regurgitation. […]
# Criteria for measuring the effects: the changes of conditions before and after treatment and the time the symptoms disappear were recorded precisely. […]
smiles,measurement,setting,value
"[O][Cl+][O-] [chlorine dioxide solution, chlorine dioxide]",neural function score (median),"[1]; Day 1, model group 3, NaClO2 7.47% + citric acid 16.7% 1:1 diluted five times, carotid artery once a day for ten days after the second day",3
same,neural function score (median),"[1]; Day 2, model group 3, diluted solution via carotid artery once a day for ten days after the second day",3
same,neural function score (median),"[1]; Day 3, model group 3, diluted solution via carotid artery once a day for ten days after the second day",2
same,neural function score (median),"[1]; Day 4, model group 2, diluted solution via carotid artery once a day for ten days after the second day",2
same,neural function score (median),"[1]; Day 5, model group 2, diluted solution via carotid artery once a day for ten days after the second day",1
same,neural function score (median),"[1]; Day 6, model group 2, diluted solution via carotid artery once a day for ten days after the second day",1
same,neural function score (median),"[1]; Day 7, model group 2, diluted solution via carotid artery once a day for ten days after the second day",1
same,neural function score (median),"[1]; Day 8, model group 2, diluted solution via carotid artery once a day for ten days after the second day",0
same,neural function score (median),"[1]; Day 9, model group 1, diluted solution via carotid artery once a day for ten days after the second day",0
same,neural function score (median),"[1]; Day 10, model group 1, diluted solution via carotid artery once a day for ten days after the second day",0
same,neural function score (median),"[1]; Day 11, model group 1, diluted solution via carotid artery once a day for ten days after the second day",0
same,neural function score (median),"[1]; Day 12, model group 1, diluted solution via carotid artery once a day for ten days after the second day",0
same,neural function score (median),"[1]; Day 13, model group 1, diluted solution via carotid artery once a day for ten days after the second day",0
same,neural function score (median),"[1]; Day 14, model group 1, diluted solution via carotid artery once a day for ten days after the second day",0
same,neural function score (median),"[1]; Day 15, model group 1, diluted solution via carotid artery once a day for ten days after the second day",0
same,neural function score (median),"[1]; Day 16, model group 1, diluted solution via carotid artery once a day for ten days after the second day",0
same,neural function score (median),"[1]; Day 17, model group 1, diluted solution via carotid artery once a day for ten days after the second day",0
same,neural function score (median),"[1]; Day 18, model group 1, diluted solution via carotid artery once a day for ten days after the second day",0
same,neural function score (median),"[1]; Day 19, model group 1, diluted solution via carotid artery once a day for ten days after the second day",0
same,neural function score (median),"[1]; Day 20, model group 1, diluted solution via carotid artery once a day for ten days after the second day",0
same,neural function score (median),"[1]; Day 21, model group 1, diluted solution via carotid artery once a day for ten days after the second day",0**
same,"onset of recovery of neural function, treatment group vs model group","[1]; significant particularly on day 7, 8, 9 and 16 after operation",earlier than that in the model group
same,Medical cartilage thickness mean(±SD),[2]; sixth month,0.66 (±0.16) mm
same,Lateral cartilage thickness mean(±SD),[2]; sixth month,0.73 (±0.11) mm
same,Central cartilage thickness mean (±SD),"[2]; sixth month, before administration 0.73 (±0.09)",0.89 (±0.09) mm
same,"Central cartilage thickness, percentage increase",[2]; sixth month,12.7%
same,"Lateral cartilage thickness, percentage increase",[2]; sixth month,8.9%
same,"Medical cartilage thickness, percentage increase",[2]; sixth month,11.9%
same,Medical cartilage thickness mean(±SD),"[2]; third month, ultrasound, 11 hip arthritis patients, topical with DMSO",0.59 (±0.08) mm
same,Lateral cartilage thickness mean(±SD),[2]; third month,0.67 (±0.10) mm
same,"Central cartilage thickness, percentage increase",[2]; third month,8.2%
same,"Lateral cartilage thickness, percentage increase",[2]; third month,9.8%
same,"Medical cartilage thickness, percentage increase",[2]; third month,15.6%
same,stimulation score to skin and eye mucous membrane,[3],0
same,HP negative conversing (%),[4]; rapid urease test after 30 days,96.6%
same,HP negative conversing (No.),[4]; rapid urease test of gastric mucosa after 30 days,29
